From ChEMBL document CHEMBL3046263, “Isolation, characterization, antibacterial, antihelminthic, and in silico studies of polyprenol from Kirganelia reticulata Baill” (2013)
≈ marks a conversion by molar mass, not a printed value.

Legend:
Type in all cases: functional
[1] = system: Metaphire posthuma; assay: Antihelminthic activity against Pheretima posthuma assessed as paralysis time at 200 mg/ml (reference value: 63.33 +/-0.87 min)
[2] = system: Metaphire posthuma; assay: Antihelminthic activity against Pheretima posthuma assessed as paralysis time at 150 mg/ml (reference value: 63.33 +/-0.87 min)
[3] = system: Metaphire posthuma; assay: Antihelminthic activity against Pheretima posthuma assessed as paralysis time at 100 mg/ml (reference value: 63.33 +/-0.87 min)
[4] = system: Metaphire posthuma; assay: Antihelminthic activity against Pheretima posthuma assessed as paralysis time at 50 mg/ml (reference value: 63.33 +/-0.87 min)
[5] = system: Escherichia coli; assay: Antibacterial activity against Escherichia coli after 24 hr by microbroth dilution method
[6] = system: Salmonella typhi; assay: Antibacterial activity against Salmonella enterica subsp. enterica serovar Typhi assessed after 24 hr by microbroth dilution method
[7] = system: Metaphire posthuma; assay: Antihelminthic activity against Pheretima posthuma assessed as death time at 200 mg/ml (reference value: 198.33 +/-2.61 min)
[8] = system: Metaphire posthuma; assay: Antihelminthic activity against Pheretima posthuma assessed as death time at 150 mg/ml (reference value: 198.33 +/-2.61 min)
[9] = system: Metaphire posthuma; assay: Antihelminthic activity against Pheretima posthuma assessed as death time at 100 mg/ml (reference value: 198.33 +/-2.61 min)
[10] = system: Metaphire posthuma; assay: Antihelminthic activity against Pheretima posthuma assessed as death time at 50 mg/ml (reference value: 198.33 +/-2.61 min)
[11] = system: Pseudomonas aeruginosa; assay: Antibacterial activity against Pseudomonas aeruginosa after 24 hr by microbroth dilution method
[12] = system: Staphylococcus aureus; assay: Antibacterial activity against Staphylococcus aureus after 24 hr by microbroth dilution method
[13] = system: Escherichia coli; assay: Antibacterial activity against Escherichia coli assessed as diameter of growth inhibition zone at 100 mg/ml after 24 hr by agar well diffusion method; conditions: read-out: DIZ
[14] = system: Salmonella typhi; assay: Antibacterial activity against Salmonella enterica subsp. enterica serovar Typhi assessed as diameter of growth inhibition zone at 100 mg/ml after 24 hr by agar well diffusion method; conditions: read-out: DIZ
[15] = system: Pseudomonas aeruginosa; assay: Antibacterial activity against Pseudomonas aeruginosa assessed as diameter of growth inhibition zone at 100 mg/ml after 24 hr by agar well diffusion method; conditions: read-out: DIZ
[16] = system: Staphylococcus aureus; assay: Antibacterial activity against Staphylococcus aureus assessed as diameter of growth inhibition zone at 100 mg/ml after 24 hr by agar well diffusion method; conditions: read-out: DIZ

## C/C(=C/CC/C=C/CO)CC/C=C(/C)CC/C=C(\C)CO [POLYPRENOL]
[1]
  Time: 36.17 min
[2]
  Time: 39.63 min
[3]
  Time: 43.37 min
[4]
  Time: 51.57 min
[5]
  MBC: 25 µg/mL (≈ 85.5 µM)
  MIC: 12.5 µg/mL (≈ 42.7 µM)
[6]
  MBC: 12.5 µg/mL (≈ 42.7 µM)
  MIC: 6.25 µg/mL (≈ 21.4 µM)
[7]
  Time: 44.47 min
[8]
  Time: 48.5 min
[9]
  Time: 55.13 min
[10]
  Time: 81.7 min
[11]
  MBC: 12.5 µg/mL (≈ 42.7 µM)
  MIC: 6.25 µg/mL (≈ 21.4 µM)
[12]
  MBC: 25 µg/mL (≈ 85.5 µM)
  MIC: 12.5 µg/mL (≈ 42.7 µM)
[13]
  zone of inhibition at 100000 µg/mL: 5.6 mm
[14]
  zone of inhibition at 100000 µg/mL: 13.1 mm
[15]
  zone of inhibition at 100000 µg/mL: 14.7 mm
[16]
  zone of inhibition at 100000 µg/mL: 9.1 mm

## C1CNCCN1.C1CNCCN1.C1CNCCN1.O.O=C(O)CC(O)(CC(=O)O)C(=O)O.O=C(O)CC(O)(CC(=O)O)C(=O)O [PIPERAZINE CITRATE]
[4]
  Time: 32.44 min
[10]
  Time: 40.72 min

## O=C(O)c1cn(C2CC2)c2cc(N3CCNCC3)c(F)cc2c1=O [CIPROFLOXACIN]
[5]
  MBC: 12.5 µg/mL (≈ 37.7 µM)
[6]
  MBC: 6.25 µg/mL (≈ 18.9 µM)
  MIC: 3.12 µg/mL (≈ 9.43 µM)
[11]
  MBC: 6.25 µg/mL (≈ 18.9 µM)
[12]
  MBC: 12.5 µg/mL (≈ 37.7 µM)
[13]
  zone of inhibition at 100000 µg/mL: 10.2 mm
[14]
  zone of inhibition at 100000 µg/mL: 29 mm
[15]
  zone of inhibition at 100000 µg/mL: 31.8 mm
[16]
  zone of inhibition at 100000 µg/mL: 18.1 mm
